Like-named read-outs stand apart in the source and are kept apart here.
Experiments:
[1] = target: human SOS1 (nucleotide exchange of K-Ras^G12C) (Homo sapiens, UniProt Q07889); assay: Biochemical assay 2: K-Ras^G12C activation assay by hSOS1 at high GTP concentration (HTRF); conditions: for inhibition at 20 µM: read-out: Assay 2 (KRAS-Activation by SOS high GTP) activity expressed as % inhibition at 20 μM
[2] = target: Epidermal Growth Factor Receptor (EGFR) (Homo sapiens (Human), UniProt P00533); assay: EGFR kinase assay (TR-FRET); type: biochemical
Sequence of Epidermal Growth Factor Receptor (EGFR) (P00533 25-1210): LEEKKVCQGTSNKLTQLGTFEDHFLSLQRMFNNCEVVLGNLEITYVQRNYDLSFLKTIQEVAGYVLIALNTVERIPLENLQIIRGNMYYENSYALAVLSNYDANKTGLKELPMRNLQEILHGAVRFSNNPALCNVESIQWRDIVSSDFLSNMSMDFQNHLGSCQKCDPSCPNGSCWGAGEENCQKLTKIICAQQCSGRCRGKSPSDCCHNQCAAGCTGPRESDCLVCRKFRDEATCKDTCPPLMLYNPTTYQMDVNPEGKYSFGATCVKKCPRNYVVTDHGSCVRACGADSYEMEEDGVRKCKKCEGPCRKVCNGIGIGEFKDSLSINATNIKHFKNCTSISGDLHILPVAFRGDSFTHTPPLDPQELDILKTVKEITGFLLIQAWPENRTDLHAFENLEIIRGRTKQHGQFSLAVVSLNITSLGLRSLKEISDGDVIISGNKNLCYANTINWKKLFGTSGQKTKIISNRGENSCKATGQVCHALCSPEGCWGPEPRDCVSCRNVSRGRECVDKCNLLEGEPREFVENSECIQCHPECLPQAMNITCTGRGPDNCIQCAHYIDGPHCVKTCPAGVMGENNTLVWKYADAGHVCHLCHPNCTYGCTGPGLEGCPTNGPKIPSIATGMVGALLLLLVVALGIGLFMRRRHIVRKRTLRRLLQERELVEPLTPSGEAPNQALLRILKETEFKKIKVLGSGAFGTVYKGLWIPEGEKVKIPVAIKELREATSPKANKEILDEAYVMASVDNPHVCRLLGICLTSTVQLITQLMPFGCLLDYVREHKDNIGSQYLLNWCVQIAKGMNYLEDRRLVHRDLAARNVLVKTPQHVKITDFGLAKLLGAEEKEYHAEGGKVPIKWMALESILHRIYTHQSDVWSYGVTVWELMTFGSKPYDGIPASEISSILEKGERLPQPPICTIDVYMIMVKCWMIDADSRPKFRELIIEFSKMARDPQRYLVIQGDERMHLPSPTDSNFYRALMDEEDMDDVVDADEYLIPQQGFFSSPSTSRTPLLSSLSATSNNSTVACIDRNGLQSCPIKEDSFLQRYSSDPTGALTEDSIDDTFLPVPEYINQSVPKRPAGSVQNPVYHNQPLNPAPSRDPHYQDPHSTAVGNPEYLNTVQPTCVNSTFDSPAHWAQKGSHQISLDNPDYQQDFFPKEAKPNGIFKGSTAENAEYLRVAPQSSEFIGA
Outline: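 EGFR purified from A431 cells was preincubated with compound 15 min at 22° C in pH 7.0 Hepes buffer with MgCl2, MnCl2 and vanadate before reaction with a biotinylated peptide. After EDTA stop, phosphopeptide was detected by TR-FRET (anti-phosphotyrosine Tb-cryptate, streptavidin-XL665) as the 665/620 nm emission ratio.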

[3] = E-notation values, unit inferred, 50 μM GTP, read-out: Assay 2 (KRAS-Activation, high GTP) IC50
[4] = E-notation values, unit inferred, read-out: EGFR-assay IC50
[5] = values given in μM, read-out: EGFR kinase inhibition IC50
[6] = in μM, read-out: EGFR-assay IC50

Compound	IC50 [1, 3]	IC50 [2, 4]	further results
COc1cc2nc(C)nc(NC(C)c3ccc(-c4ccccc4CN(C)C)s3)c2cc1OC (single isomer, unassigned) [Example 390, N-[1-(5-{2-[(dimethylamino)methyl]phenyl}thiophen-2-yl)ethyl]-6,7-dimethoxy-2-methylquinazolin-4-amine]	6250 nM	> 20 µM	–
CNCc1ccccc1-c1sc(C(C)Nc2nc(C)nc3cc(OC)c(OC)cc23)cc1C (centres unmarked) [Example 402, 6,7-di methoxy-2-methyl-N-[1-(4-methyl-5-{2-[(methylamino)methyl]phenyl}thiophen-2-yl)ethyl]quinazolin-4-amine]	75.2 nM	> 20 µM	–
COc1cc2nc(C)nc(NC(C)c3ccc(-c4ccccc4C4CC(=O)N4)s3)c2cc1OC (centres unmarked) [Example 411, 4-[2-(5-{1-[(6,7-dimethoxy-2-methylquinazolin-4-yl)amino]ethyl}thiophen-2-yl)phenyl]azetidin-2-one]	> 20000 nM	> 20 µM	–
COc1cc2nc(C)nc(NC(C)c3cc(Cl)c(-c4ccccc4CN)s3)c2cc1OC (centres unmarked) [Example 430, N-[1-{5-[2-(aminomethyl)phenyl]-4-chlorothiophen-2-yl}ethyl]-6,7-dimethoxy-2-methylquinazolin-4-amine]	378 nM	> 20 µM	–
COc1cc2nc(C)nc(NC(C)c3cc(Cl)c(-c4ccccc4CN(C)C)s3)c2cc1OC (centres unmarked) [Example 431, N-[1-(4-chloro-5-{2-[(dimethylamino)methyl]phenyl}thiophen-2-yl)ethyl]-6,7-dimethoxy-2-methylquinazolin-4-amine]	215 nM	> 20 µM	–
COc1cc2nc(C)nc(NC(C)c3ccc(-c4ccc(CNC(=O)OC(C)(C)C)o4)s3)c2cc1OC (centres unmarked) [Example 236, tert-butyl {[5-(5-{1-[(6,7-dimethoxy-2-methylquinazolin-4-yl)amino]ethyl}thiophen-2-yl)furan-2-yl]methyl}carbamate]	–	–	IC50 ([1]; high GTP, read-out: Assay 2 (KRAS-Activation by SOS high GTP) activity expressed as IC50): 3820 nM; IC50 [2, 5]: > 20 µM
Cc1nc(NC(C)c2ccc(-c3ccccc3CN(C)C)s2)c2cc(N3CCN(Cc4ccccc4)C(=O)C3)ccc2n1 (centres unmarked) [Example 458, 1-benzyl-4-(4-{[1-(5-{2-[(dimethylamino)methyl]phenyl}thiophen-2-yl)ethyl]amino}-2-methylquinazolin-6-yl)piperazin-2-one]	40 nM	> 20 µM	–
COC(=O)C(C)(C)c1ccccc1-c1ccc(C(C)Nc2nc(C)nc3cc(OC)c(OC)cc23)s1 (centres unmarked) [Example 436, methyl 2-[2-(5-{1-[(6,7-dimethoxy-2-methylquinazolin-4-yl)amino]ethyl}thiophen-2-yl)phenyl]-2-methylpropanoate]	1470 nM	> 20 µM	–
COc1cc2nc(C)nc(NC(C)c3ccc(-c4ccc(O)nc4)s3)c2cc1OC (centres unmarked) [Example 395, 5-(5-{1-[(6,7-dimethoxy-2-methylquinazolin-4-yl)amino]ethyl}thiophen-2-yl)pyridin-2-ol]	1060 nM	7.07 µM	–
COc1cc2nc(C)nc(NC(C)c3cc(C)c(-c4ccc(F)cc4CN)s3)c2cc1OC (centres unmarked) [Example 399, N-(1-{5-[2-(aminomethyl)-4-fluorophenyl]-4-methyl-2-thienyl}ethyl)-6,7-dimethoxy-2-methylquinazolin-4-amine]	192 nM	> 20 µM	–
Cc1nc(N[C@H](C)c2cccc(Cl)c2)c2cc(-c3cnn(C)c3)ccc2n1 [Example 406, N-[(1R)-1-(3-chlorophenyl)ethyl]-2-methyl-6-(1-methyl-1H-pyrazol-4-yl)quinazolin-4-amine]	400 nM	> 20 µM	–
COc1cc2nc(C)nc(NC(C)c3ccc(-c4c(Cl)cccc4CN)s3)c2cc1OC (centres unmarked) [Example 409, N-[1-{5-[2-(aminomethyl)-6-chlorophenyl]thiophen-2-yl}ethyl]-6,7-dimethoxy-2-methylquinazolin-4-amine]	28 nM	> 20 µM	–
COc1cc2nc(C)nc(NC(C)c3ccc(-n4ccc(CCO)n4)o3)c2cc1OC (centres unmarked) [Example 226, 2-[1-(5-{1-[(6,7-dimethoxy-2-methylquinazolin-4-yl)amino]ethyl}furan-2-yl)-1H-pyrazol-3-yl]ethanol]	–	–	inhibition at 20 µM ([1]; high GTP): 37%; IC50 [2, 5]: > 20 µM
COc1cc2nc(C)nc(NC(C)c3sc(-c4ccccc4CN)cc3Cl)c2cc1OC (centres unmarked) [Example 437, N-[1-{5-[2-(aminomethyl)phenyl]-3-chlorothiophen-2-yl}ethyl]-6,7-dimethoxy-2-methylquinazolin-4-amine]	95.3 nM	> 20 µM	–
CC(=O)NCCNc1ccc2nc(C)nc(NC(C)c3ccc(-c4ccccc4CN(C)C)s3)c2c1 (centres unmarked) [Example 427, N-{2-[(4-{[1-(5-{2-[(dimethylamino)methyl]phenyl}thiophen-2-yl)ethyl]amino}-2-methylquinazolin-6-yl)amino]ethyl}acetamide]	49.8 nM	> 20 µM	–
COc1cc2nc(C)nc(NC(C)c3ccc(-c4ccccc4C(O)C(C)C)s3)c2cc1OC (centres unmarked) [Example 379, 1-[2-(5-{1-[(6,7-dimethoxy-2-methylquinazolin-4-yl)amino]ethyl}thiophen-2-yl)phenyl]-2-methylpropan-1-ol]	1350 nM	–	IC50 [2, 6]: > 20 µM
Cc1nc(NC(C)c2ccc(Br)s2)c2cc(NCCN3CCOCC3)ccc2n1 (stereo not drawn) [Example 425, N4-[l-(5-bromo-2-thienyl)ethyl]-2-methyl-N6-[2-(morpholin-4-yl)ethyl]quinazoline-4,6-diamine]	2560 nM	> 20 µM	–
C#CC(O)c1ccccc1-c1ccc(C(C)Nc2nc(C)nc3cc(OC)c(OC)cc23)s1 (centres unmarked) [Example 378, 1-[2-(5-{1-[(6,7-dimethoxy-2-methylquinazolin-4-yl)amino]ethyl}thiophen-2-yl)phenyl]prop-2-yn-1-ol]	1050 nM	–	IC50 [2, 6]: > 20 µM
Cc1nc(NC(C)c2ccc(-c3ccccc3CN(C)C)s2)c2cc(N3CCN(C)C(=O)C3)ccc2n1 (centres unmarked) [Example 435, 4-(4-{[1-(5-{2-[(dimethylamino)methyl]phenyl}thiophen-2-yl)ethyl]amino}-2-methylquinazolin-6-yl)-1-methylpiperazin-2-one]	51.9 nM	> 20 µM	–
COc1cc2nc(C)nc(NC(C)c3ccc(-c4ccc(F)cc4CNC(=O)c4cc5ccccc5[nH]4)s3)c2cc1OC (centres unmarked) [Example 296, N-[2-(5-{1-[(6,7-dimethoxy-2-methylquinazolin-4-yl)amino]ethyl}thiophen-2-yl)-5-fluorobenzyl]-1H-indole-2-carboxamide]	–	–	inhibition at 20 µM ([1]; high GTP): 48%; IC50 [2, 5]: > 20 µM
Cc1nc(NC(C)c2ccc(Br)s2)c2cc(N3CCN(Cc4cccnc4)CC3)ccc2n1 (centres unmarked) [Example 424, N-[1-(5-bromothiophen-2-yl)ethyl]-2-methyl-6-[4-(pyridin-3-ylmethyl)piperazin-1-yl]quinazolin-4-amine]	1410 nM	> 20 µM	–
Cc1ccc2nc(C)nc(N[C@H](C)c3cccc(Cl)c3)c2c1 [Example 404, N-[(1R)-1-(3-chlorophenyl)ethyl]-2,6-dimethylquinazolin-4-amine]	1450 nM	> 20 µM	–
